Reference: ChEMBL document CHEMBL5329207, “Design, synthesis, and biological evaluation of diaminopyrimidine derivatives as novel focal adhesion kinase inhibitors” (RSC Med Chem, 2023)

Assays:
A549 = test: cells; details: Homo sapiens, A549, 72 h
Description: Antiproliferative activity against human A549 cells assessed as inhibition of cell proliferation incubated for 72 hrs by MTT assay

MDA-MB-231 = test: cells; details: Homo sapiens, MDA-MB-231, 72 h
Description: Antiproliferative activity against human MDA-MB-231 cells assessed as inhibition of cell proliferation incubated for 72 hrs by MTT assay

Focal adhesion kinase 1 [1] = biological target: T1, Focal adhesion kinase 1 (Homo sapiens, UniProt Q05397); test: Inhibition of FAK (unknown origin) incubated for 50 mins in presence of substrate/ATP by HTRF assay
T1 sequence (Q05397 whole entry, the tested form may be a part): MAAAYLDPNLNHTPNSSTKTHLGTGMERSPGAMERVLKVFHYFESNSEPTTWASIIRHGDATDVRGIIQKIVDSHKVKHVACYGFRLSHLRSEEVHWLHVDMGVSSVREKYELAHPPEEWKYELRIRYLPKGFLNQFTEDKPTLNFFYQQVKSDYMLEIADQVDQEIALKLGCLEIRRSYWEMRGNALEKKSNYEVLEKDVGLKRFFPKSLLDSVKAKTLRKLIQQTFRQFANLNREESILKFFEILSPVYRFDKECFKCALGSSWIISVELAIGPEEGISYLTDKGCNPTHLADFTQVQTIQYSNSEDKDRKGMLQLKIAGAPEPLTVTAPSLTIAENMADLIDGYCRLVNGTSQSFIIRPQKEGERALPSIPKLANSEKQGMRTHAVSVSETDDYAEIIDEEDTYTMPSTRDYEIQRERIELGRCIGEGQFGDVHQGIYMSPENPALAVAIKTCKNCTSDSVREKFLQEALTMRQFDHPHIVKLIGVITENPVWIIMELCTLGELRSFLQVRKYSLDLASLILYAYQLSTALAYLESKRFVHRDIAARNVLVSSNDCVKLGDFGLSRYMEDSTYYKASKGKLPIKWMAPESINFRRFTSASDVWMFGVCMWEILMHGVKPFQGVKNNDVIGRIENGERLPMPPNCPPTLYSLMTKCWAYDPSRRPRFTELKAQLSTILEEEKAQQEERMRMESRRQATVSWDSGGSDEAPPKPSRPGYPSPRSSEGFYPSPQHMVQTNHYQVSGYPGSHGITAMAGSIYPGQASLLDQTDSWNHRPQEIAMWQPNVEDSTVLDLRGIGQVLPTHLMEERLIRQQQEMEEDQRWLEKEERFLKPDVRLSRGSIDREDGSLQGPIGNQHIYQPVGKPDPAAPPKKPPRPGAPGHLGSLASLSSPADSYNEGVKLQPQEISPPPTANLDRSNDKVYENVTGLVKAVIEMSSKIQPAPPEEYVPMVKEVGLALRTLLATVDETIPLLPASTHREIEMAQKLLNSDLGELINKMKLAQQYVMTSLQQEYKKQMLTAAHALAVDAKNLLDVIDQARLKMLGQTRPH

Focal adhesion kinase 1 [2] = biological target: T1, Focal adhesion kinase 1; test: Inhibition of GST-fused FAK (411 to 686 residues)(unknown origin) expressed in baculovirus expression system using poly(Glu:Tyr) as substrate incubated for 5 mins in presence of ATP by K-LISA screening assay

Row | IC50 (A549) [nM] | IC50 (MDA-MB-231) [nM] | IC50 (Focal adhesion kinase 1 [1]) [nM] | IC50 (Focal adhesion kinase 1 [2]) [nM] | SMILES
1 | 4240 | 1020 | – | – | CNC(=O)c1ccccc1Nc1nc(Nc2ccc(N3CCOCC3)cc2OC)ncc1Cl
2 | 1400 | 2490 | 15.7 | – | COc1cc(C(=O)NC2CCC(O)CC2)ccc1Nc1ncc(Cl)c(Nc2ccccc2P(C)(C)=O)n1 (centres undefined)
3 | – | – | 28.8 | – | Cc1cc(C(=O)NC2CCNCC2)ccc1Nc1ncc(Cl)c(Nc2ccccc2P(C)(C)=O)n1
4 | – | – | – | 1.5 | CNC(=O)c1ccccc1Nc1nc(Nc2ccc(N3CCOCC3)cc2OC)ncc1C(F)(F)F
5 | – | – | 413 | – | CNC1CCN(C(=O)c2ccc(Nc3ncc(Cl)c(Nc4ccccc4P(C)(C)=O)n3)cc2)CC1
6 | 110 | 860 | 9.6 | – | CP(C)(=O)c1ccccc1Nc1nc(Nc2ccc(C(=O)NC3CCC(O)CC3)cc2)ncc1Cl (centres undefined)
7 | – | – | 163 | – | CN(C(=O)c1ccc(Nc2ncc(Cl)c(Nc3ccccc3P(C)(C)=O)n2)cc1)C1CCCNC1 (centres undefined)
8 | 2300 | 1620 | 8.7 | – | CP(C)(=O)c1ccccc1Nc1nc(Nc2ccc(C(=O)NC3CCNCC3)cc2)ncc1Cl
9 | – | – | 119 | – | CN(C(=O)c1ccc(Nc2ncc(Cl)c(Nc3ccccc3P(C)(C)=O)n2)cc1)C1CCNCC1
10 | – | – | 240 | – | CP(C)(=O)c1ccccc1Nc1nc(Nc2ccc(C(=O)N3CCC[C@@H](N)C3)cc2)ncc1Cl
11 | 2230 | 2120 | 16.7 | – | CP(C)(=O)c1ccccc1Nc1nc(Nc2ccc(C(=O)N[C@@H]3CCNC3)cc2)ncc1Cl
12 | – | – | 17.5 | – | CP(C)(=O)c1ccccc1Nc1nc(Nc2ccc(C(=O)NC3CCC(O)CC3)cc2F)ncc1Cl (centres undefined)
13 | – | – | 31.7 | – | Cc1cc(C(=O)NC2CCC(O)CC2)ccc1Nc1ncc(Cl)c(Nc2ccccc2P(C)(C)=O)n1 (centres undefined)
14 | 520 | 7530 | 10.3 | – | Cc1cc(Nc2ncc(Cl)c(Nc3ccccc3P(C)(C)=O)n2)ccc1C(=O)NC1CCC(O)CC1 (centres undefined)
15 | – | – | 149 | – | CP(C)(=O)c1ccccc1Nc1nc(Nc2ccc(C(=O)N3CCC(N4CCOCC4)CC3)cc2)ncc1Cl
16 | – | – | 356 | – | CP(C)(=O)c1ccccc1Nc1nc(Nc2ccc(C(=O)N3CCOCC3)cc2)ncc1Cl
17 | – | – | 328 | – | CP(C)(=O)c1ccccc1Nc1nc(Nc2ccc(C(=O)N3CCNCC3)cc2)ncc1Cl
18 | – | – | 19.7 | – | CP(C)(=O)c1ccccc1Nc1nc(Nc2ccc(C(=O)NCC3CCNCC3)cc2)ncc1Cl
19 | 1410 | 1340 | 6.7 | – | COc1cc(C(=O)NC2CCNCC2)ccc1Nc1ncc(Cl)c(Nc2ccccc2P(C)(C)=O)n1
20 | – | – | 361 | – | CP(C)(=O)c1ccccc1Nc1nc(Nc2ccc(C(=O)N3CCC[C@H](N)C3)cc2)ncc1Cl
21 | – | – | 31.9 | – | Cc1cc(Nc2ncc(Cl)c(Nc3ccccc3P(C)(C)=O)n2)ccc1C(=O)NC1CCNCC1
22 | – | – | 27.5 | – | CP(C)(=O)c1ccccc1Nc1nc(Nc2ccc(C(=O)NC3CCNCC3)cc2F)ncc1Cl
23 | 2650 | 8690 | 15.8 | – | CP(C)(=O)c1ccccc1Nc1nc(Nc2ccc(C(=O)NC3CCNCC3)c(F)c2)ncc1Cl
24 | 390 | 2480 | 15.2 | – | CP(C)(=O)c1ccccc1Nc1nc(Nc2ccc(C(=O)NC3CCC(O)CC3)c(F)c2)ncc1Cl (centres undefined)
25 | 2210 | 2350 | 14.3 | – | CP(C)(=O)c1ccccc1Nc1nc(Nc2ccc(C(=O)N[C@H]3CCNC3)cc2)ncc1Cl
